The target in one experiment is PRMT5/MEP50 (Homo sapiens (Human), UniProt O14744). The experiment in a line: PRMT5 Biochemical Assay (PRMT5/MEP50 enzyme assay on peptide substrate, 3H-SAM Flashplate). The conditions noted are these: PRMT5/MEP50 biochemical assay; read-out: Biochemical IC50.
The test system of experiment [1] is symmetric di-methyl arginine in Z-138 cells. The experiment in a line: Z-138 Methylation Assay (In Cell Western for symmetric di-methyl arginine and DNA content). In kind it is cell-based. The settings on record: Homo sapiens, read-out: ICW EC50. The source says: [formula] Where top and bottom are the normally allowed to float, but may be fixed at 100 or 0 respectively in a 3-parameter fit. The Hill Coefficient normally allowed to float but may also be fixed at 1 in a 3-parameter fit. Y is the % inhibition and X is the compound concentration.
RPMI/Glutamax medium, penicillin-streptomycin, heat inactivated fetal bovine serum, and D-PBS were purchased from Life Technologies, Grand Island, N.Y., USA. Odyssey blocking buffer, 800CW goat anti-rabbit IgG (H+L) antibody, and Licor Odyssey infrared scanner were purchased from Licor Biosciences, Lincoln, Nebr., USA. Symmetric di-methyl arginine antibody was purchased from EMD Millipore, Billerica, Mass., USA. 16% Paraformaldehyde was purchased from Electron Microscopy Sciences, Hatfield, Pa., USA.
Cell Treatment, in Cell Western (ICW) for Detection of Symmetric Di-Methyl Arginine and DNA Content.
Z-138 cells were seeded in assay medium at a concentration of 50,000 cells per mL to a 384-well cell culture plate with 50 μL per well. Compound (100 nL) from 384 well source plates was added directly to 384 well cell plate. Plates were incubated at 37° C., 5% CO2 for 96 hours. […] Plates were incubated at room temperature for 30 minutes then incubated at 37° C., 5% CO2 for 5 hours. After the incubation, 40 μL per well of 8% paraformaldehyde in PBS (16% paraformaldahyde was diluted to 8% in PBS) was added to each plate and incubated for 30 minutes. […] Next 30 μL per well of Odyssey blocking buffer were added to each plate and incubated 1 hour at room temperature. […]
First, the ratio for each well was determined by:
Each plate included fourteen control wells of DMSO only treatment (minimum inhibition) as well as fourteen control wells for maximum inhibition treated with 3 μM of a reference compound (Background wells). The average of the ratio values for each control type was calculated and used to determine the percent inhibition for each test well in the plate. […] Percent inhibition was determined and IC50 curves were generated using triplicate wells per concentration of compound.

In another experiment the test system is Z-138 cell line. The experiment is described as follows: Z-138 Proliferation Assay (Cell Titer Glo, 5 days). The class given is cell-based. The settings on record: Z-138 cells. The source says: RPMI/Glutamax medium, penicillin-streptomycin, heat inactivated fetal bovine serum were purchased from Life Technologies, Grand Island, N.Y., USA. V-bottom polypropylene 384-well plates were purchased from Greiner Bio-One, Monroe, N.C., USA. Cell culture 384-well white opaque plates were purchased from Perkin Elmer, Waltham, Mass., USA. Cell-Titer Glo® was purchased from Promega Corporation, Madison, Wis., USA. SpectraMax M5 plate reader was purchased from Molecular Devices LLC, Sunnyvale, Calif., USA.
A compound source plate was prepared by performing triplicate nine-point 3-fold serial dilutions in DMSO, beginning at 10 mM (final top concentration of compound in the assay was 20 μM and the DMSO was 0.2%). A 100 nL aliquot from the compound stock plate was added to its respective well in the cell plate. […] After addition of compounds, assay plates were incubated for 5 days at 37° C., 5% CO2, relative humidity >90%. […] Luminescence was read in the SpectraMax M5 microplate reader. The concentration of compound inhibiting cell viability by 50% was determined using a 4-parametric fit of the normalized dose response curves.
(In ATP-based viability assays light output follows the ATP content of the culture.)

The results in this text go back to patent US9675614B2, “PRMT5 inhibitors and uses thereof” (Epizyme, Inc., priority 2012, dated 2017).

Where only a bound is given, the exact number is not on record here.

PRMT5/MEP50, sequence (O14744 other isoform, or with tags, fused parts or gaps): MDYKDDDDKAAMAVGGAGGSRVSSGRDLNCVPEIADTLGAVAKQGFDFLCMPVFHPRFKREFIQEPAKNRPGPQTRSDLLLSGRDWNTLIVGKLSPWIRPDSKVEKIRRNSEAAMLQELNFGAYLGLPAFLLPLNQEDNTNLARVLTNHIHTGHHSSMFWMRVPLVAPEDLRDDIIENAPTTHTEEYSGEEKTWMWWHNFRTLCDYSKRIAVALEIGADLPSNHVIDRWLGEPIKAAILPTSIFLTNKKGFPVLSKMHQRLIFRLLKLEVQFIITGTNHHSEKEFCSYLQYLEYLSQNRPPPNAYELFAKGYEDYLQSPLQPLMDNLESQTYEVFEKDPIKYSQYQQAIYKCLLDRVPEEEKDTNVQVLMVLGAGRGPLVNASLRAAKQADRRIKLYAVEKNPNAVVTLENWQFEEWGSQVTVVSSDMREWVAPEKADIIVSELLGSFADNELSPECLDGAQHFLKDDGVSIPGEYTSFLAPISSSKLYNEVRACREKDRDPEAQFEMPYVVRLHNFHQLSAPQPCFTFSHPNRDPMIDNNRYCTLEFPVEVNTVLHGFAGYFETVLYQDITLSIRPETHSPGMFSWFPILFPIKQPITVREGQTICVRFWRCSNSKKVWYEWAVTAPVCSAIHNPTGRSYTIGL
PRMT5/MEP50, sequence (Q9BQA1 other isoform, or with tags, fused parts or gaps partner): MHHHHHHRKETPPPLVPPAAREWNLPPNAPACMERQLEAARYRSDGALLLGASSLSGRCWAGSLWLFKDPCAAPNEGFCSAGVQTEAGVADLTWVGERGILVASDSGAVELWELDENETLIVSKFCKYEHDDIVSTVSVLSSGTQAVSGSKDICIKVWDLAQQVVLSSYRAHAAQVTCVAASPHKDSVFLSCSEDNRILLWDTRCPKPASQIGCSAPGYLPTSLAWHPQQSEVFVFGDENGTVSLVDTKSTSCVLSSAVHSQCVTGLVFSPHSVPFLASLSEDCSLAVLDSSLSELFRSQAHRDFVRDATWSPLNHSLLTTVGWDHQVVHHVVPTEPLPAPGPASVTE

The term IC50 denotes the point on the concentration scale where inhibition reaches its midpoint. The EC50 is the concentration at which the effect is half-maximal. In the case of `CN1CCC(Oc2cccc(C(=O)NCC(O)CN3CCc4ccccc4C3)c2)C1` (stereo not drawn) [Compound 120], at PRMT5/MEP50, the IC50 is less than 100 nM. Besides, the figures for the EC50 (in experiment [1]; with Z-138 cell line) were 101 to 1000 nM and 1000 to 10000 nM, respectively.

For `CN1CCC(Oc2cc(C(=O)NC[C@H](O)CN3CCc4ccccc4C3)ncn2)CC1` [Compound 206], at PRMT5/MEP50, the IC50 is less than 100 nM. The EC50 in experiment [1] was 101 to 1000 nM; in the experiment on Z-138 cell line (Homo sapiens, Z-138, 120 h), 1000 to 10000 nM.
